The values that follow come from patent EP4043466B1, “PRC2 INHIBITORS” (Mirati Therapeutics, Inc., priority 2018, dated 2019).

Structures are written as SMILES.

The subject of test [1] is PRC2-mediated histone H3 methylation. Kind of test: Tri-Methyl Histone H3 (Lys 27) Sandwich ELISA in Pfeiffer cells: inhibition of PRC2-mediated histone H3 methylation. The class given is cell-based, human. Particulars: Homo sapiens; Inhibition of EZH2-mediated histone H3 trimethylation; Pfeiffer cells (EZH2 A677G), 96 hours incubation. From the text:
The Pfeiffer cell line was established from a […] from a patient having metastatic diffuse large B-cell lymphoma (DLBCL). This cell line expresses a mutant form of the EZH2 enzyme (A677G) that results in enhanced EZH2 activity leading to increased methylation of histone H3 Lys27. Increased trimethylation of histone H3 Lys27 is believed to be implicated in tumorgenesis and poor clinical prognosis in lymphomas (McCabe et al., (2012) Nature 492:108-112).
Inhibition of PRC2-mediated histone H3 methylation by compounds of Formula (I) was measured by ELISA using a Tri-Methyl Histone H3 (Lys 27) Sandwich ELISA Kit (Cell Signaling Tech #7866C) in accordance with the manufacturer's instructions. Briefly, Pfeiffer cells were cultured in RPMI medium supplemented with 10% fetal bovine serum and 1% penicillin and 1% streptomycin in 96 well culture plates at 37°C to a density of 8000 cells/90µl/well and the cells were harvested. A series of 3-fold serial dilutions of each test compound of Formula (I) were prepared in RPMI medium and added to the cells at final concentrations ranging from 1µM to 0.15 nM. The plates were incubated at 37°C for 96 hours.
After incubation, the cells were pelleted by centrifugation in a pre-cooled 4°C rotor at 1, 100 rpm for 10 min and the supernatant was removed by aspiration. The cell pellet was resuspended in 55µl of Lysis Buffer (0.4M HCl) and incubated on ice with periodic shaking for 30 minutes. The lysed cells were subjected to centrifugation at 4, 200 rpm for 10 min at 4°C and the supernatant containing acid-soluble proteins was collected and the remainder discarded. The acid-soluble proteins were brought to a neutral pH by the addition of 20 µl of Neutralization Buffer (1 M Sodium phosphate, dibasic (pH 12.5), 2.5 mM DTT and 1 mM PMSF) and the neutralized lysates were analyzed by ELISA.
A 65 µl aliquot of each cell lysate was added to a well of a microwell strip, the microwells were sealed using tape and incubated either at 37°C for two hours or at 4°C overnight. After incubation, the tape was removed at the microwells were washed four times using 200 µl of 1X Wash Buffer. To each washed microwell, a 100 µl aliquot of an antitrimethyl histone H3 Lys27 Detection Antibody solution was added and the microwells were incubated at 37°C for one hour. The Detection Antibody solution was removed by aspiration and the wells were washed four times each using 200 µl of 1X Wash Buffer.
A 100 µl aliquot of an HRP-linked secondary antibody was added to each well, the wells were sealed with tape and incubated at 37°C for 30 min. The HRP-linked secondary antibody solution was removed by aspiration and the wells were washed four times using 200 µl of 1X Wash Buffer. A 100 µl aliquot of a TMB substrate was added to each well, the wells were sealed with tape and incubated at 37°C for 10 min or 25°C for 30 min. The reaction was stopped by the addition of 100 µl aliquot of a STOP solution and the plate was shaken briefly. The degree of histone H3 trimethylation was determined using a spectrophotometric readout by measuring the absorbance at 450 nm and then calculating the amount of trimethylated histone H3. A = ≤100 nM; B = >100 nM - ≤500 nM; C = >500 nM and N.D. = not determined.

Test [2] concerns the target purified human, His-tagged PRC2 complex (Homo sapiens, UniProt O75530+Q15910). In words: Hot Spot HMT assay: inhibition of PRC2 enzymatic activity (transfer of tritiated methyl from SAM to core histone, filter binding). It is filed as biochemical. Particulars: Inhibition of PRC2-mediated enzymatic activity; 10 nM PRC2 complex, 0.05 mg/ml core histone H3, 1 uM 3H-SAM, 1 hr at 30°C. The method, boiled down: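 Serial compound dilutions starting at 1.0 µM were pre-incubated 20 min at 30°C with 10 nM complex (His-EZH2, Flag-EED, His-SUZ12, His-AEBP2, His-RbAp48) and 0.05 mg/ml core H3. Reaction ran 1 hr at 30°C after adding 1 uM [3H]-SAM; scintillation counting followed filtration.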

Another test deals with Karpas 422 cells. Kind of test: Karpas 422 cell viability, CTG (Cell Titre Glo) assay. Particulars: Homo sapiens; Inhibition of proliferation of Karpas 422 cells (EZH2 Y641N); viability measured Day 4, Day 7 or Day 11, time point of the tabulated values not stated. It is filed as cell-based, human. The method, boiled down:
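CellTiter-Glo viability IC50s taken at Day 4, Day 7 and Day 11 of continuous compound exposure (3-fold series, 10µM top, 1.5nM lowest) in RPMI/20% FBS at 37 °C. Y641N-mutant EZH2 lymphoma line seeded at 1000 cells per well; medium and compound replaced on Day 7 for Day 11 read.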

Chain of purified human, His-tagged PRC2 complex (Q15910 whole entry): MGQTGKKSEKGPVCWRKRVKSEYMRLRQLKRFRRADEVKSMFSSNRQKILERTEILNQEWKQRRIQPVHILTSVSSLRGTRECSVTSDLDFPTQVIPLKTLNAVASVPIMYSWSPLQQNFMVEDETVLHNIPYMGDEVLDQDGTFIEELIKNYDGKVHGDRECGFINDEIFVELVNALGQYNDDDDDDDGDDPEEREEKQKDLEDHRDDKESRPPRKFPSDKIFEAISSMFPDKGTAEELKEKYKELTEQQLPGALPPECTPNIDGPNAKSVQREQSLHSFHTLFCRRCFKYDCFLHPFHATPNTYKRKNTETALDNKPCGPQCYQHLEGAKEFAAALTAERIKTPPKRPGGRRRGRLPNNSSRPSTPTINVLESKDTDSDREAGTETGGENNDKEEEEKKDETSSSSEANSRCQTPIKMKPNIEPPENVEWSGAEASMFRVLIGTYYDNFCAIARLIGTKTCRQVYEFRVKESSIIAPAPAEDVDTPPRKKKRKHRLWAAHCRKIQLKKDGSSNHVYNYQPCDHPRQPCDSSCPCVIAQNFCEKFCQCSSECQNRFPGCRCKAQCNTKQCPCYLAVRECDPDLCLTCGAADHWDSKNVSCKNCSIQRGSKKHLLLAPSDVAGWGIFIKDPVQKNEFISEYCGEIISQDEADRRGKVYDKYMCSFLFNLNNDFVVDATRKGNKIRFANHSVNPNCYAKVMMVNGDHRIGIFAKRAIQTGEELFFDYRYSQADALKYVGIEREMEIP
Chain of purified human, His-tagged PRC2 complex (O75530 whole entry): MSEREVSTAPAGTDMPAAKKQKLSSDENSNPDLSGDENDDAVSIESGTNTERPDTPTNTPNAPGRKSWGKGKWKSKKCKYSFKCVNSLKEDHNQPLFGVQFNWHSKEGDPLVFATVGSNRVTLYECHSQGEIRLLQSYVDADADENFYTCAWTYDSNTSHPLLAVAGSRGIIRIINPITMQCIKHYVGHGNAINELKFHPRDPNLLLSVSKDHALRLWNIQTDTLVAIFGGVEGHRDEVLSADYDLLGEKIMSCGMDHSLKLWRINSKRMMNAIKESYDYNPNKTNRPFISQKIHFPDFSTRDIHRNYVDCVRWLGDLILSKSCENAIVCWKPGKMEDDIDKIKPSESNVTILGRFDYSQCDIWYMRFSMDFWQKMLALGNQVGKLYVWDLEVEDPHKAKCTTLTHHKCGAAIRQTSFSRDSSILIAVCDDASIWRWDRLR
Chain of purified human, His-tagged PRC2 complex (Q15022 whole entry partner): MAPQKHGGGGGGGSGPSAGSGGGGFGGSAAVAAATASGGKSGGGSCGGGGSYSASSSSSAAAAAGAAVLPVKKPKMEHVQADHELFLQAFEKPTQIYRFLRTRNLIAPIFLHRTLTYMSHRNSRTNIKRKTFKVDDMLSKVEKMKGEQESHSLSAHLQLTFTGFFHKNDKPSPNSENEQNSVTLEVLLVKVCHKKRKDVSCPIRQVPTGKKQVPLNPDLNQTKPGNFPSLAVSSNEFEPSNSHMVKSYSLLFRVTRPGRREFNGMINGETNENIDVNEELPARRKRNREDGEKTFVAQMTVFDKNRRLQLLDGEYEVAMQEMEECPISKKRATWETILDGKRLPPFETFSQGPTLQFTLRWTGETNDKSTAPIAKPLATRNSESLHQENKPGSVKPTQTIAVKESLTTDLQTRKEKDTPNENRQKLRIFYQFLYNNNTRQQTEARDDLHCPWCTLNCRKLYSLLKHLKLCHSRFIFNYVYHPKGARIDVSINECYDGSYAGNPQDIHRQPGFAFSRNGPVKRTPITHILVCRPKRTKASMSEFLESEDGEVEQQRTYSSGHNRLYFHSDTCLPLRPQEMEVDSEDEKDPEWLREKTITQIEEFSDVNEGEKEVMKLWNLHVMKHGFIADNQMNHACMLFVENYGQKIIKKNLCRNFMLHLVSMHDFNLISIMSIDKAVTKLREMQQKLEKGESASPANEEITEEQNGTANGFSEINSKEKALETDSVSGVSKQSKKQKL
Chain of purified human, His-tagged PRC2 complex (Q6ZN18 whole entry partner): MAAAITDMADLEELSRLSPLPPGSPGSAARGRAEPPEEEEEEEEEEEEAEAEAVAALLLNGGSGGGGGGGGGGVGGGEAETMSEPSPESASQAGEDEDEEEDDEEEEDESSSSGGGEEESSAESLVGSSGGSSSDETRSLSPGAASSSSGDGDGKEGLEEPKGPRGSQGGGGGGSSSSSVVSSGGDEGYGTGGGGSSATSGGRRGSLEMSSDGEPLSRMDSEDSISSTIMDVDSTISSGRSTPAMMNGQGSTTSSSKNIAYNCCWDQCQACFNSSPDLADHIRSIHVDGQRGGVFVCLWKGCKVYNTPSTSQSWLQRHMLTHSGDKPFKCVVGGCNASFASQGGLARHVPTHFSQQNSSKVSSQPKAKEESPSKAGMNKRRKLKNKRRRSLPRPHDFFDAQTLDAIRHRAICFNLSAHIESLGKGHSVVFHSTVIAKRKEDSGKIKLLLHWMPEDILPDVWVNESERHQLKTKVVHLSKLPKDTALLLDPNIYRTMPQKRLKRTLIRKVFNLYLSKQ
Chain of purified human, His-tagged PRC2 complex (Q09028 whole entry partner): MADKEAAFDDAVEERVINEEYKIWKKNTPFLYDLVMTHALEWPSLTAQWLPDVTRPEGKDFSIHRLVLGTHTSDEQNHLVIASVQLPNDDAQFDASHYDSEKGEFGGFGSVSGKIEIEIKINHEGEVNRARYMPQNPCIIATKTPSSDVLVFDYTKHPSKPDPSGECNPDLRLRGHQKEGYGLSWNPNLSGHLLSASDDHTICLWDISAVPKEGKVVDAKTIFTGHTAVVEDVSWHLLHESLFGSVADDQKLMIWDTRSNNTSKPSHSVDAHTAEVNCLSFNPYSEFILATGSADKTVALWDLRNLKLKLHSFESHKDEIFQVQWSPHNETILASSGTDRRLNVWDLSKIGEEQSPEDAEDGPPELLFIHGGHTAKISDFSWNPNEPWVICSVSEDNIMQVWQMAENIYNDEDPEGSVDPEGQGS

Turning to `CN(C)c1ccc(-c2cnc(NCc3c(F)ccc4c3CCO4)n3cc(C#N)nc23)cn1` [Example 60, 8-(6-(dimethylamino)pyridin-3-yl)-5-(((5-fluoro-2,3-dihydrobenzofuran-4-yl)methyl)amino)imidazo[1,2-c]pyrimidine-2-carbonitrile], the IC50 was greater than 500 nM in test [1], 100 to 500 nM in test [2] and 250 to 500 nM in the test with Karpas 422 cells.
With `CN(C)Cc1ccc(-c2cnc(NCc3c(F)ccc4c3CCO4)n3cc(C#N)nc23)c(F)c1` [Example 61, 8-(4-((dimethylamino)methyl)-2-fluorophenyl)-5-(((5-fluoro-2,3-dihydrobenzofuran-4-yl)methyl)amino)imidazo[1,2-c]pyrimidine-2-carbonitrile], the concentration for half-maximal inhibition (IC50) is no more than 100 nM in test [1], less than 100 nM in test [2] and no more than 250 nM in the test with Karpas 422 cells.
Take `Cc1ncc(F)cc1-c1cnc(NCc2c(F)ccc3c2CCO3)n2cc(C#N)nc12` [Example 62, 5-(((5-fluoro-2,3-dihydrobenzofuran-4-yl)methyl)amino)-8-(5-fluoro-2-methylpyridin-3-yl)imidazo[1,2-c]pyrimidine-2-carbonitrile]: the results for the IC50 (in test [1]; in test [2]; in the test with Karpas 422 cells) were 100 to 500 nM, less than 100 nM and no more than 250 nM, respectively.
Regarding `Cc1nn(C[C@@H](C)O)c(C)c1-c1cnc(NCc2c(F)ccc3c2CCO3)n2cc(C#N)nc12` [Example 66, (R)-5-(((5-fluoro-2,3-dihydrobenzofuran-4-yl)methyl)amino)-8-(1-(2-hydroxypropyl)-3,5-dimethyl-1H-pyrazol-4-yl)imidazo[1,2-c]pyrimidine-2-carbonitrile], the IC50 in test [1] is 100 to 500 nM; in test [2], 100 to 500 nM; in the test on Karpas 422 cells, no more than 250 nM.
As to `Cc1ccc(-c2cnc(NCc3c(F)ccc4c3CCO4)n3cc(C#N)nc23)c(C)n1` [Example 67, 8-(2,6-dimethylpyridin-3-yl)-5-(((5-fluoro-2,3-dihydrobenzofuran-4-yl)methyl)amino)imidazo[1,2-c]pyrimidine-2-carbonitrile], the IC50 in test [1] is no more than 100 nM; in test [2], less than 100 nM; in the test with Karpas 422 cells, no more than 250 nM.
Turning to `N#Cc1cn2c(NCc3c(F)ccc4c3CCO4)ncc(-c3cnccn3)c2n1` [Example 68, 5-(((5-fluoro-2,3-dihydrobenzofuran-4-yl)methyl)amino)-8-(pyrazin-2-yl)imidazo[1,2-c]pyrimidine-2-carbonitrile], the IC50 was 100 to 500 nM in test [1], less than 100 nM in test [2] and no more than 250 nM in the test with Karpas 422 cells.
Take `Cc1ncc(-c2cnc(NCc3c(F)ccc4c3CCO4)n3cc(C#N)nc23)cn1` [Example 69, 5-(((5-fluoro-2,3-dihydrobenzofuran-4-yl)methyl)amino)-8-(2-methylpyrimidin-5-yl)imidazo[1,2-c]pyrimidine-2-carbonitrile]: the IC50 was 100 to 500 nM in test [1], less than 100 nM in test [2] and no more than 250 nM in the test with Karpas 422 cells.
For `Cc1ncc(-c2cnc(NCc3c(F)ccc4c3CCO4)n3cc(C#N)nc23)c(C)n1` [Example 71, 8-(2,4-dimethylpyrimidin-5-yl)-5-(((5-fluoro-2,3-dihydrobenzofuran-4-yl)methyl)amino)imidazo[1,2-c]pyrimidine-2-carbonitrile], the half-maximal inhibitory concentration (IC50) in test [1] is 100 to 500 nM; in test [2], less than 100 nM; with Karpas 422 cells, no more than 250 nM.
With `N#Cc1cn2c(NCc3c(F)ccc4c3CCO4)ncc(-c3ccc(CN4CCCC4)cc3)c2n1` [Example 74, 5-(((5-fluoro-2,3-dihydrobenzofuran-4-yl)methyl)amino)-8-(4-(pyrrolidin-1 - ylmethyl)phenyl)imidazo[1,2-c]pyrimidine-2-carbonitrile], the IC50 in test [1] is no more than 100 nM; in test [2], less than 100 nM; in the test with Karpas 422 cells it was no more than 250 nM.
The corresponding values for `N#Cc1cn2c(NCc3c(F)ccc4c3CCO4)ncc(-c3ccc(CN4CCOCC4)cc3)c2n1` [Example 75, 5-(((5-fluoro-2,3-dihydrobenzofuran-4-yl)methyl)amino)-8-(4-(morpholinomethyl)phenyl)imidazo[1,2-c]pyrimidine-2-carbonitrile] are 100 to 500 nM, less than 100 nM and no more than 250 nM.
For `Cc1cc(C(=O)N(C)C)ncc1-c1cnc(NCc2c(F)ccc3c2CCO3)n2cc(C#N)nc12` [Example 76, 5-(2-cyano-5-(((5-fluoro-2,3-dihydrobenzofuran-4-yl)methyl)amino)imidazo[1,2-c]pyrimidin-8-yl)-N,N,4-trimethylpicolinamide], the figures for the IC50 (in test [1]; in test [2]; in the test on Karpas 422 cells) were no more than 100 nM, less than 100 nM and no more than 250 nM, respectively.
As to `N#Cc1cn2c(NCc3c(F)ccc4c3CCO4)ncc(C3CC3)c2n1` [Example 77, 8-cyclopropyl-5-(((5-fluoro-2,3-dihydrobenzofuran-4-yl)methyl)amino)imidazo[1,2-c]pyrimidine-2-carbonitrile], the IC50 is greater than 500 nM in test [1], 100 to 500 nM in test [2] and greater than 500 nM in the test on Karpas 422 cells.
Consider `Cc1cc(-c2cnc(NCc3c(F)ccc4sccc34)n3cc(C#N)nc23)n(C)n1` [Example 81, 8-(1,3-dimethyl-1H-pyrazol-5-yl)-5-(((5-fluorobenzo[b]thiophen-4-yl)methyl)amino)imidazo[1,2-c]pyrimidine-2-carbonitrile], for which the IC50 (in test [1]; in test [2]; in the test with Karpas 422 cells) was greater than 500 nM in each case.
For the compound `N#Cc1cn2c(NCc3c(F)ccc4c3CCO4)ncc(-c3ccc(S(=O)(=O)C(F)(F)F)cc3)c2n1` [Example 82, 5-(((5-fluoro-2,3-dihydrobenzofuran-4-yl)methyl)amino)-8-(4-((trifluoromethyl)sulfonyl)phenyl)imidazo[1,2-c]pyrimidine-2-carbonitrile], the 50% inhibitory concentration (IC50) is greater than 500 nM in test [1], 100 to 500 nM in test [2] and 250 to 500 nM in the test on Karpas 422 cells.
The corresponding values for `Cc1c(-c2cnc(NCc3c(F)ccc4c3CCO4)n3cc(C#N)nc23)ccc(CN(C)C)c1F` [Example 85, 8-(4-((dimethylamino)methyl)-3-fluoro-2-methylphenyl)-5-(((5-fluoro-2,3-dihydrobenzofuran-4-yl)methyl)amino)imidazo[1,2-c]pyrimidine-2-carbonitrile] are no more than 100 nM, less than 100 nM and no more than 250 nM.
Turning to `Cc1cc(-c2cnc(NCc3c(F)ccc4c3CCO4)n3cc(C#N)nc23)n(C)n1` [Example 86, 8-(1,3-dimethyl-1H-pyrazol-5-yl)-5-(((5-fluoro-2,3-dihydrobenzofuran-4-yl)methyl)amino)imidazo[1,2-c]pyrimidine-2-carbonitrile], the figures for the IC50 (in test [1]; in test [2]; in the test with Karpas 422 cells) were no more than 100 nM, less than 100 nM and no more than 250 nM, respectively.
Consider `Cc1ncccc1-c1cnc(NCc2c(F)ccc3c2CCO3)n2cc(C#N)nc12` [Example 105, 5-(((5-fluoro-2,3-dihydrobenzofuran-4-yl)methyl)amino)-8-(2-methylpyridin-3-yl)imidazo[1,2-c]pyrimidine-2-carbonitrile], for which the half-maximal inhibitory concentration (IC50) in test [1] was no more than 100 nM; in test [2] it was less than 100 nM; in the test with Karpas 422 cells it was no more than 250 nM.
